Reference: PMC4767605 (Cancer chemotherapy and pharmacology, 2016)
Values joined by “and” are separate entries in the source; they are usually repeats but may differ in a detail not shown here. Equal entries are not always repeated. Where two headings read alike, the source gives them in different places.

[1] = ASP9853 Lead-in (n=20), single agent
[2] = Cohort 1 (n=6): ASP9853 25 mg + docetaxel 60 mg/m^2
[3] = Cohort 2 (n=4): ASP9853 25 mg + docetaxel 75 mg/m^2
[4] = Cohort 3 (n=3): ASP9853 37.5 mg + docetaxel 60 mg/m^2

## O.O.O=C(/C=C/c1ccc(Cl)cc1)N[C@@H](Cc1ccccn1)C(=O)NCC(=O)N1CCC(Oc2cc(C(F)(F)F)ncn2)CC1 [ASP9853, (2E)-3-(4-chlorophenyl)-N-[(1S)-2-oxo-2-{[2-oxo-2-(4-{[6-(trifluoromethyl)-4-pyrimidinyl]oxy}-1-piperidinyl)ethyl]amino}-1-(2-pyridinylmethyl)ethyl]acrylamide dehydrate]
ASP9853 25 mg + docetaxel 60 mg/m^2
  Toxicity noted in single-patient Cohort 1 (did not meet DLT criteria): Grade 3 neutropenia
ASP9853 + docetaxel
  Changes in liver function tests, vital signs, or electrocardiogram (ECGs): No clinically significant changes from baseline
  Neutropenia during treatment (laboratory evaluation): All patients experienced neutropenia
ASP9853 + docetaxel, all cohorts
  Patients with AEs that led to treatment discontinuation: Three
[1]
  AE potentially related to ASP9853: Anemia; Grade 3/4: 0 n (%)
  AE potentially related to ASP9853: Anemia; Grade All: 0 n (%)
  AE potentially related to ASP9853: Asthenia; Grade 3/4: 0 n (%)
  AE potentially related to ASP9853: Asthenia; Grade All: 1 (5) n (%)
  AE potentially related to ASP9853: Constipation; Grade 3/4: 0 n (%)
  AE potentially related to ASP9853: Constipation; Grade All: 0 n (%)
  AE potentially related to ASP9853: Decreased appetite; Grade 3/4: 0 n (%)
  AE potentially related to ASP9853: Decreased appetite; Grade All: 0 n (%)
  AE potentially related to ASP9853: Diarrhea; Grade 3/4 (only Grade 3): 0 n (%)
  AE potentially related to ASP9853: Diarrhea; Grade All: 0 n (%)
  AE potentially related to ASP9853: Dizziness; Grade 3/4: 0 n (%)
  AE potentially related to ASP9853: Dizziness; Grade All: 0 n (%)
  AE potentially related to ASP9853: Fatigue; Grade 3/4 (only Grade 3): 0 n (%)
  AE potentially related to ASP9853: Fatigue; Grade All: 0 n (%)
  AE potentially related to ASP9853: Febrile neutropenia; Grade 3/4: 0 n (%)
  AE potentially related to ASP9853: Febrile neutropenia; Grade All: 0 n (%)
  AE potentially related to ASP9853: Nausea; Grade 3/4: 0 n (%)
  AE potentially related to ASP9853: Nausea; Grade All: 1(5) n (%)
  AE potentially related to ASP9853: Neutropenia; Grade 3/4: 0 n (%)
  AE potentially related to ASP9853: Neutropenia; Grade All: 0 n (%)
  AE potentially related to ASP9853: Neutrophil count decreased; Grade 3/4: 0 n (%)
  AE potentially related to ASP9853: Neutrophil count decreased; Grade All: 0 n (%)
  AE potentially related to ASP9853: Overall; Grade 3/4: 0 n (%)
  AE potentially related to ASP9853: Overall; Grade All: 7 [35%] n (%) and 7 (35) n (%)
  AE potentially related to ASP9853: Vomiting; Grade 3/4: 0 n (%)
  AE potentially related to ASP9853: Vomiting; Grade All: 1 (5) n (%)
  AE potentially related to ASP9853: White blood cell count decreased; Grade All: 0 n (%)
[2]
  AE potentially related to ASP9853: Anemia; Grade 3/4: 0 n (%)
  AE potentially related to ASP9853: Anemia; Grade All: 1 (17) n (%)
  AE potentially related to ASP9853: Asthenia; Grade 3/4: 0 n (%)
  AE potentially related to ASP9853: Asthenia; Grade All: 0 n (%)
  AE potentially related to ASP9853: Constipation; Grade 3/4: 0 n (%)
  AE potentially related to ASP9853: Constipation; Grade All: 1 (17) n (%)
  AE potentially related to ASP9853: Decreased appetite; Grade 3/4: 0 n (%)
  AE potentially related to ASP9853: Decreased appetite; Grade All: 0 n (%)
  AE potentially related to ASP9853: Diarrhea; Grade 3/4 (only Grade 3): 0 n (%)
  AE potentially related to ASP9853: Diarrhea; Grade All: 1 (17) n (%)
  AE potentially related to ASP9853: Dizziness; Grade 3/4: 0 n (%)
  AE potentially related to ASP9853: Dizziness; Grade All: 0 n (%)
  AE potentially related to ASP9853: Fatigue; Grade 3/4 (only Grade 3): 0 n (%)
  AE potentially related to ASP9853: Fatigue; Grade All: 2 (33) n (%)
  AE potentially related to ASP9853: Febrile neutropenia; Grade 3/4: 0 n (%)
  AE potentially related to ASP9853: Febrile neutropenia; Grade All: 0 n (%)
  AE potentially related to ASP9853: Nausea; Grade 3/4: 0 n (%)
  AE potentially related to ASP9853: Nausea; Grade All: 0 n (%)
  AE potentially related to ASP9853: Neutropenia; Grade 3/4: 1 (17) n (%)
  AE potentially related to ASP9853: Neutropenia; Grade All: 1 (17) n (%)
  AE potentially related to ASP9853: Neutrophil count decreased; Grade 3/4: 0 n (%)
  AE potentially related to ASP9853: Neutrophil count decreased; Grade All: 0 n (%)
  AE potentially related to ASP9853: Overall; Grade 3/4: 2 (33) n (%)
  AE potentially related to ASP9853: Overall; Grade All: 5 (83) n (%)
  AE potentially related to ASP9853: Vomiting; Grade 3/4: 0 n (%)
  AE potentially related to ASP9853: Vomiting; Grade All: 0 n (%)
  AE potentially related to ASP9853: White blood cell count decreased; Grade All: 1 (17) n (%)
Cohort 2
  SAE considered related to ASP9853: diarrhea: 1 n
  SAE considered related to ASP9853: febrile neutropenia: 2 n
[3]
  AE potentially related to ASP9853: Anemia; Grade 3/4: 0 n (%)
  AE potentially related to ASP9853: Anemia; Grade All: 1 (25) n (%)
  AE potentially related to ASP9853: Asthenia; Grade 3/4: 0 n (%)
  AE potentially related to ASP9853: Asthenia; Grade All: 2 (50) n (%)
  AE potentially related to ASP9853: Constipation; Grade 3/4: 0 n (%)
  AE potentially related to ASP9853: Constipation; Grade All: 0 n (%)
  AE potentially related to ASP9853: Decreased appetite; Grade 3/4: 0 n (%)
  AE potentially related to ASP9853: Decreased appetite; Grade All: 1 (25) n (%)
  AE potentially related to ASP9853: Diarrhea; Grade 3/4 (only Grade 3): 1 (25) n (%)
  AE potentially related to ASP9853: Diarrhea; Grade All: 2 (50) n (%)
  AE potentially related to ASP9853: Dizziness; Grade 3/4: 0 n (%)
  AE potentially related to ASP9853: Dizziness; Grade All: 0 n (%)
  AE potentially related to ASP9853: Fatigue; Grade 3/4 (only Grade 3): 1 (25) n (%)
  AE potentially related to ASP9853: Fatigue; Grade All: 3 (75) n (%)
  AE potentially related to ASP9853: Febrile neutropenia; Grade 3/4: 2 (50) n (%)
  AE potentially related to ASP9853: Febrile neutropenia; Grade All: 2 (50) n (%)
  AE potentially related to ASP9853: Nausea; Grade 3/4: 0 n (%)
  AE potentially related to ASP9853: Nausea; Grade All: 2 (50) n (%)
  AE potentially related to ASP9853: Neutropenia; Grade 3/4: 0 n (%)
  AE potentially related to ASP9853: Neutropenia; Grade All: 0 n (%)
  AE potentially related to ASP9853: Neutrophil count decreased; Grade 3/4: 0 n (%)
  AE potentially related to ASP9853: Neutrophil count decreased; Grade All: 0 n (%)
  AE potentially related to ASP9853: Overall; Grade 3/4: 3 (75) n (%)
  AE potentially related to ASP9853: Overall; Grade All: 3 (75) n (%)
  AE potentially related to ASP9853: Vomiting; Grade 3/4: 0 n (%)
  AE potentially related to ASP9853: Vomiting; Grade All: 3 (75) n (%)
  AE potentially related to ASP9853: White blood cell count decreased; Grade All: 0 n (%)
[4]
  AE potentially related to ASP9853: Anemia; Grade 3/4: 0 n (%)
  AE potentially related to ASP9853: Anemia; Grade All: 0 n (%)
  AE potentially related to ASP9853: Asthenia; Grade 3/4: 0 n (%)
  AE potentially related to ASP9853: Asthenia; Grade All: 0 n (%)
  AE potentially related to ASP9853: Constipation; Grade 3/4: 0 n (%)
  AE potentially related to ASP9853: Constipation; Grade All: 1 (33) n (%)
  AE potentially related to ASP9853: Decreased appetite; Grade 3/4: 0 n (%)
